Measured values from patent US12029804B2, “Peptide for promoting mucous membrane permeation and composition containing same” (SOONCHUNHYANG UNIVERSITY INDUSTRY ACADEMY COOPERATION …, priority 2018, dated 2024).
Where two headings read alike, the source gives them in different places. Bridge positions count the residues as written; N and C are the ends. Square brackets hold non-standard residues; d marks the D form. Ends that are not written are not given here. Peptide text beside a SMILES is read from it. I, II: the chains in the order shown. ξ: configuration not given here. Dap(N3) = [N-]=[N+]=NC[C@H](N)C(=O)O; ξDap(N3) = [N-]=[N+]=NCC(N)C(=O)O

Experiments:
in vivo = details: rat, in vivo
Protocol: (§1) For a control group, a 0.5% (w/v) levan aqueous solution including doxorubicin without the peptide was prepared.
(§2) At this time, the dosage of peptide-containing drug was 10 mg/kg for each group.
(§3) Before drug administration, the rat was anesthetized and cannulated into the femoral veno-artery using PE-50. An abdominal cavity was opened and the test substance was administered to an upper duodenum of the small intestine.
(§4) After administration of the solution through a cannula inserted into the femoral vein of the rat, each 250 μl of blood was collected at 5, 10, 20, 40, 60, 120, 180 and 240 minutes and saline was supplemented via the femoral artery. The collected blood was centrifuged at 13,000 rpm for 10 minutes so as to obtain 100 μl of plasma. After adding 200 μl of methanol to the obtained plasma, the resulting solution was subjected into vortex, and then centrifuged again at 13,000 rpm for 10 minutes to carry out deproteinization, and the supernatant was quantitatively analyzed by HPLC-Fluorescence.

[1] = tested on: intestinal mucous membrane; experiment: Intestinal (duodenum) administration of doxorubicin with peptide or peptide dimer in rats, doxorubicin blood concentration; details: rat, duodenum, peptide 10 mg/kg vs doxorubicin only
Protocol: as §1, §2, §3, §4

nasal mucous membrane = details: rat, intranasal; for AUC0-360min of fexofenadine, times higher than the group dosed with fexofenadine alone: fexofenadine with peptide (text on Table 1)
Protocol: Male Sprague-Dawley (SD) rats (280-300 g) were acclimated for a minimum of two days in individual cages in a laboratory animal room. At this time, the rats were allowed to freely consume food and water before an experiment, provided with light for 12 hours, and maintained in the dark state for 12 hours. One day before the experiment, the animals were provided only with water and fasted.
The rats prepared in above 1 were divided into each group of three to five rats so as to prepare a total of nine groups, after which each of the test substances prepared was intranasally administered into the group. At this time, the dosage of each drug was 1.0, 2.5 or 5.0 mg/kg per rat.
Before intranasal administration, the rat was anesthetized and cannulated into the femoral veno-artery using PE-50. The solution was carefully administered to the nostril of the rat using a micropipette (Eppendof) so as not to affect the nasal mucous membrane. At this time, the rat's body was laid on the floor and the head was placed while leaning against the wall.
The collected blood was centrifuged at 13,000 rpm for 10 minutes so as to obtain 100 μl of plasma. After adding 200 μl of methanol to the obtained plasma, the resulting solution was subjected into vortex, and then centrifuged again at 13,000 rpm for 10 minutes to carry out deproteinization, and the supernatant was quantitatively analyzed by HPLC-MS.

[2] = tested on: intestinal mucous membrane; details: rat, duodenum
Protocol: as §3
(§5) After administration of the solution through a cannula inserted into the femoral vein of the rat, each 250 μl of blood was collected at 5, 10, 20, 40, 60, 120, 180 and 240 minutes and saline was supplemented via the femoral artery. The collected blood was centrifuged at 13,000 rpm for 10 minutes so as to obtain 100 μl of plasma. After adding 200 μl of methanol to the obtained plasma, the resulting solution was subjected into vortex, and then centrifuged again at 13,000 rpm for 10 minutes to carry out deproteinization, and the supernatant was quantitatively analyzed by HPLC-MS.

[3] = rat, plasma, 10 mg/kg
Protocol: as §3, §5

Caco-2 monolayer = experiment: Drug permeability through the Caco-2 monolayer with peptide; details: peptide 5 mM, all drugs of Table 3
in vitro = details: human, Caco-2
[4] = fexofenadine with peptide vs fexofenadine alone

| Compound | Doxorubicin AUC0-240 min, fold of control [1] | Fexofenadine AUC0-240 min, fold of control group (nasal mucous membrane; [4]) | Fexofenadine Cmax, fold of control group (nasal mucous membrane; [4]) | Fexofenadine Tmax, fold of control group (nasal mucous membrane; [4]) | also measured |
| --- | --- | --- | --- | --- | --- |
| COc1cccc2c1C(=O)c1c(O)c3c(c(O)c1C2=O)C[C@@](O)(C(=O)CO)C[C@@H]3O[C@H]1C[C@H](N)[C@H](O)[C@H](C)O1 [Doxorubicin, doxorubicin, reference compound] |  |  |  |  | AUC(0-t) (in vivo; male, Sprague-Dawley): 76.2 ng·h/mL |
| CC[C@H](C)[C@H](NC(=O)C(CN=[N+]=[N-])NC(=O)[C@H](N)Cc1ccccc1)C(=O)NCC(=O)N[C@@H](CCCNC(=N)N)C(=O)N[C@@H](CC(C)C)C(N)=O (stereo partly drawn) [Example 1, FX1IGRL-NH2(X1=Dap(N3))] (H-[dF][ξDap(N3)]IGRL-NH2) | (1.81-fold) | (1.92-fold) | 3 fold | (0.57-fold) | Fexofenadine Cmax, fold of control group (nasal mucous membrane; fexofenadine with peptide vs fexofenadine alone, listed as H-FX1IGRL-NH2): (2.90-fold); Fexofenadine AUC0-240 min, fold of control group (nasal mucous membrane; peptide 1 mg/kg): (1.64-fold); Fexofenadine Cmax, fold of control group (nasal mucous membrane; peptide 1 mg/kg): 2 fold; Fexofenadine Tmax, fold of control group (nasal mucous membrane; peptide 1 mg/kg): (0.57-fold); Fexofenadine Cmax, fold of control group (nasal mucous membrane; peptide 1 mg/kg, listed as H-FX1IGRL-NH2): (2.01-fold); Fexofenadine AUC0-240 min, fold of control group (nasal mucous membrane; peptide 5 mg/kg): (2.48-fold); Fexofenadine Cmax, fold of control group (nasal mucous membrane; peptide 5 mg/kg): 4 fold; Fexofenadine Tmax, fold of control group (nasal mucous membrane; peptide 5 mg/kg): (0.43-fold); Fexofenadine Cmax, fold of control group (nasal mucous membrane; peptide 5 mg/kg, listed as H-FX1IGRL-NH2): (4.05-fold); Fexofenadine Tmax, fold of control group (nasal mucous membrane; peptide […]): (0.57-fold) |
| CC[C@@H](C)[C@@H](NC(=O)[C@@H](CSSC[C@H](NC(=O)[C@H](N)Cc1ccccc1)C(=O)N[C@H](C(=O)NCC(=O)N[C@@H](CCCNC(=N)N)C(=O)N[C@@H](CC(C)C)C(N)=O)[C@@H](C)CC)NC(=O)[C@@H](N)Cc1ccccc1)C(=O)NCC(=O)N[C@H](CCCNC(=N)N)C(=O)N[C@H](CC(C)C)C(N)=O [Example 3, FCIGRL-NH2 Dimer] (I: H-F[dC][dI]G[dR][dL]-NH2 / II: H-[dF]CIGRL-NH2; disulfide I:2-II:2) | (2.29-fold) | (5.30-fold) | 9.7 fold | (0.38-fold) | AUC(0-t) (in vivo; 10 mg/kg): 174 ng·h/mL; Exenadine AUC0-240 min, fold of control ([2]; 5 mg/kg of peptide dimer vs exenadine alone, 5 mg/kg): about 2.17 fold; Exenadine AUC0-240 min, fold of control ([2]; 5 mg/kg of peptide dimer vs exenadine alone, listed as H-FCIGRL-NH2 (Dimer), 5 mg/kg): 3.88(2.17-fold); Exenadine AUC0-240 min, fold of control ([2]; 10 mg/kg of peptide dimer vs exenadine alone, 10 mg/kg): ~4.57 fold; Exenadine AUC0-240 min, fold of control ([2]; 10 mg/kg of peptide dimer vs exenadine alone, listed as H-FCIGRL-NH2 (Dimer), 10 mg/kg): 6.32 (4.57-fold); AUC(0-t) [3]: 343 ng·h/mL; increase rate of Papp (cm/sec) of each drug, effect of promoting mucous membrane permeation (Caco-2 monolayer): at least seven times higher; AUC0-360min of fexofenadine, times higher than the group dosed with fexofenadine alone (nasal mucous membrane): 5.3 times; Fexofenadine Cmax, fold of control group (nasal mucous membrane; fexofenadine with peptide vs fexofenadine alone, listed as H-FCIGRL-NH2 (Dimer)): (9.76-fold) |
| CC[C@H](C)[C@H](NC(=O)[C@H](CSSC[C@H](NC(=O)[C@@H](N)Cc1ccccc1)C(=O)N[C@H](C(=O)NCC(=O)N[C@@H](CCCNC(=N)N)C(=O)N[C@@H](CC(C)C)C(=O)O)[C@@H](C)CC)NC(=O)[C@@H](N)Cc1ccccc1)C(=O)NCC(=O)N[C@@H](CCCNC(=N)N)C(=O)N[C@@H](CC(C)C)C(=O)O [Example 4, FCIGRL-OH Dimer] (I: H-FCIGRL-OH / II: H-FCIGRL-OH; disulfide I:2-II:2) |  | (3.64-fold) | 6 fold | (0.41-fold) | AUC0-360min of fexofenadine, times higher than the group dosed with fexofenadine alone (nasal mucous membrane): 3.6 times; Fexofenadine Cmax, fold of control group (nasal mucous membrane; fexofenadine with peptide vs fexofenadine alone, listed as H-FCIGRL-OH (Dimer)): (6.06-fold) |
| CC[C@H](C)[C@H](NC(=O)[C@H](CSSC[C@H](NC(=O)[C@H](Cc1ccccc1)NC(=O)[C@@H](N)CN=[N+]=[N-])C(=O)N[C@H](C(=O)NCC(=O)N[C@@H](CCCNC(=N)N)C(=O)N[C@@H](CC(C)C)C(N)=O)[C@@H](C)CC)NC(=O)[C@H](Cc1ccccc1)NC(=O)[C@@H](N)CN=[N+]=[N-])C(=O)NCC(=O)N[C@@H](CCCNC(=N)N)C(=O)N[C@@H](CC(C)C)C(N)=O [Example 5, X1FCIGRL-NH2 Dimer] (I: H-[Dap(N3)]FCIGRL-NH2 / II: H-[Dap(N3)]FCIGRL-NH2; disulfide I:3-II:3) | (1.77-fold) |  |  |  |  |
| COCCc1ccc(OCC(O)CNC(C)C)cc1 (stereo not drawn) [metoprolol] |  |  |  |  | Papp (in vitro): 38.9 ×10⁻⁶ cm/s |
| FCIGRL [Preparation Example 2, FCIGRL, reference compound] |  | (1.53-fold) | (1.16-fold) | (1.52-fold) |  |
| FCIGRL-NH2 [Preparation Example 1, FCIGRL-NH2, reference compound] | (1.49-fold) | (1.70-fold) | (1.45-fold) | (1.14-fold) |  |
| FKIGRL [Preparation Example 4, FKIGRL, reference compound] |  | (1.09-fold) | (0.71-fold) | (1.14-fold) |  |
| FRIGRL [Preparation Example 3, FRIGRL, reference compound] |  | (1.39-fold) | (0.73-fold) | (1.71-fold) |  |
